Source: US6358942B1, “Phenyloxazolidinones having a c-c bond 4-8 membered heterocyclic rings” (Pharmacia & Upjohn Company, priority 1995, dated 2002)

What follows are molecules tested on Staphylococcus aureus or Streptococcus species (assay: Murine Assay: in vivo antimicrobial activity, survival of mice infected intraperitoneally with bacteria). Conditions: Table 1; female mice; treatment 1 h and 5 h after infection, oral intubation or subcutaneous; survival over six days; probit analysis of mortality ratios.
Protocol: Antimicrobial activity was tested in vivo using the Murine Assay procedure. Groups of female mice (six mice of 18-20 grams each) were injected intraperitoneally with bacteria which were thawed just prior to use and suspended in brain heart infusion with 4% brewers yeast (Staphylococcus aureus) or brain heart infusion (Streptococcus species). Antibiotic treatment at six dose levels per drug was administered one hour and five hours after infection by either oral intubation or subcutaneous routes. Survival was observed daily for six days. ED50 values based on mortality ratios were calculated using probit analysis. The subject compounds are compared against well-known antimicrobials vancomycin and U-100592 as controls. See “Upjohn Oxazolidinone Antibacterial Agent”, posters presented at the 35th Interscience Conference on Antimicrobial Agents and Chemotherapy.

| Structure (SMILES) | ED50 |
| --- | --- |
| COC(=O)N1CC(C)(c2ccc(N3C[C@H](CNC(C)=O)OC3=O)cc2F)C1 [Example 3] | 5.00 mg/kg |
| COCC(=O)N1CC(C)(c2ccc(N3C[C@H](CNC(C)=O)OC3=O)cc2F)C1 [Example 4, (S)-N-[[3-[3-Fluoro-4-[1-(methoxyacetyl)-3-(3-methyl) -azetidinyl]-phenyl]-2-oxo-5-oxazolidinyl]methyl]-acetamide] | >20.00 mg/kg |
| CC(=O)NC[C@H]1CN(c2ccc(C3(C)CN(C=O)C3)c(F)c2)C(=O)O1 [Example 5, (S)-N-[[3-[3-Fluoro-4-[1-(formyl)-3-(3-methyl)-azetidinyl]-phenyl]-2-oxo-5-oxazolidinyl]methyl]-acetamide] | 3.60 mg/kg |
| CC(=O)NC[C@H]1CN(c2ccc(C3(C)CN(C(=O)C(Cl)Cl)C3)c(F)c2)C(=O)O1 [Example 6, (S)-N-[[3-[3-Fluoro-4-[1-(dichloroacetyl)-3-(3-methyl) -azetidinyl]-phenyl]-2-oxo-5-oxazolidinyl]methyl]-acetamide] | >20.00 mg/kg |
| CC(=O)NC[C@H]1CN(c2ccc(C3(C)CN(C(C)=O)C3)c(F)c2)C(=O)O1 [Example 10, (S)-N-[[3-[3-Fluoro-4-[1-acetyl-3-(3-methyl)-azetidinyl]-phenyl]-2-oxo-5-oxazolidinyl]methyl]-acetamide] | 20.00 mg/kg |
| CC(=O)NC[C@H]1CN(c2ccc(C3(C)CN(CCF)C3)c(F)c2)C(=O)O1 [Example 11, (S)-N-[[3-[3-Fluoro-4-[1-(2-fluoroethyl)-3-(3-methyl) -azetidinyl]-phenyl]-2-oxo-5-oxazolidinyl]methyl]-acetamide] | >20.00 mg/kg |
| CC(=O)NC[C@H]1CN(c2ccc(C3(C)CN(CC#N)C3)c(F)c2)C(=O)O1 [Example 12, (S)-N-[[3-[3-Fluoro-4-[1-(cyanomethyl)-3-(3-methyl) -azetidinyl]-phenyl]-2-oxo-5-oxazolidinyl]methyl]-acetamide] | 20.00 mg/kg |
| CC(=O)NC[C@H]1CN(c2ccc(C3(C)CN(c4ncc([N+](=O)[O-])s4)C3)c(F)c2)C(=O)O1 [Example 13, (S)-N-[[3-[3-Fluoro-4-[1-(5-nitro-2-thiazolyl)-3-(3-methyl) -azetidinyl]-phenyl]-2-oxo-5-oxazolidinyl]methyl]-acetamide] | >10.00 mg/kg |
| CC(=O)NC[C@H]1CN(c2ccc(C3(C)CN(C(=O)CO)C3)c(F)c2)C(=O)O1 [Example 16, (S)-N-[[3-[3-Fluoro-4-[1-(hydroxyacetyl)-3-(3-methyl)azetidinyl]-phenyl]-2-oxo-5-oxazolidinyl]methyl]-acetamide] | 17.00 mg/kg |
| CC(=O)NC[C@H]1CN(c2ccc(C3=CCN(C(=O)CO)CC3)c(F)c2)C(=O)O1 [Example 40, (S)-(−)-N-[[3-[4-[1-(Hydroxyacetyl)-3,6-dihydro-2H-pyridin-4-yl]-3-fluoropheny]-2-oxo-5-oxazolidinyl]methyl]acetamide] | 1.00 mg/kg |
| CC(=O)NC[C@H]1CN(c2ccc(C3=CCOCC3)c(F)c2)C(=O)O1 [Example 47, (S)-(−)-N-[[3-[4-(3,6-Dihydro-2H-pyran-4-yl)-3-fluoropheny]-2-oxo-5-oxazolidinyl]methyl]acetamide] | 7.10 mg/kg |

Same assay, conditions: Table 1; female mice; treatment 1 h and 5 h after infection, oral intubation or subcutaneous; survival over six days; probit analysis of mortality ratios; read-out: ED50

| Structure (SMILES) | ED50 |
| --- | --- |
| CC(=O)NC[C@H]1CN(c2ccc(C3CCN(C(=O)CO)CC3)cc2)C(=O)O1 [Example 19, (S)-(−)-N-[[3-[4-[1-(Hydroxyacetyl)-4-piperidinyl]phenyl]-2-oxo-5-oxazolidinyl]methyl]acetamide] | 6.8 mg/kg |
| CC(=O)NC[C@H]1CN(c2ccc(C3CCN(C(=O)COCc4ccccc4)CC3)c(F)c2)C(=O)O1 [Example 21, (S)-(−)-N-[[3-[4-[1-[(Benzyloxy)acetyl]-4-piperidinyl]-3-fluorophenyl]-2-oxo-5-oxazolidinyl]methyl]acetamide] | > 20 mg/kg |
| CC(=O)NC[C@H]1CN(c2ccc(C3CCN(C(=O)CO)CC3)c(F)c2)C(=O)O1 [Example 22, (S)-(−)-N-[[3-[4-[1-(Hydroxyacetyl)-4-piperidinyl]-3-fluorophenyl]-2-oxo-5-oxazolidinyl]methyl]acetamide] | 2.3 mg/kg |
| CC(=O)NC[C@H]1CN(c2ccc(C3CCN(C(=O)c4cc5ccccc5[nH]4)CC3)c(F)c2)C(=O)O1 [Example 23, (S)-(−)-N-[[3-[4-[1-(Indole-2-carbonyl)-4-piperidinyl]-3-fluorophenyl]-2-oxo-5-oxazolidinyl]methyl]acetamide] | > 20 mg/kg |
| CC(=O)NC[C@H]1CN(c2ccc(C3CCN(C(=O)c4ccno4)CC3)c(F)c2)C(=O)O1 [Example 24, (S)-(−)-N-[[3-[4-[1-(Isoxazole-5-carbonyl)-4-piperidinyl]-3-fluorophenyl]-2-oxo-5-oxazolidinyl]methyl]acetamide] | > 20 mg/kg |
| CC(=O)NC[C@H]1CN(c2ccc(C3CCN(CCF)CC3)c(F)c2)C(=O)O1 [Example 28, (S)-(−)-N-[[3-[4-[1-(2-Fluoroethyl)-4-piperidinyl]-3-fluorophenyl]-2-oxo-5-oxazolidinyl]methyl]acetamide] | 15.3 mg/kg |
| CC(=O)NC[C@H]1CN(c2ccc(C3CCN(C=O)CC3)c(F)c2)C(=O)O1 [Example 29, (S)-(−)-N-[[3-[4-[1-(Formyl)-4-piperidinyl]-3-fluorophenyl]-2-oxo-5-oxazolidinyl]methyl]acetamide] | 5 mg/kg |
| O=C(NC[C@H]1CN(c2ccc(C3CCN(C(=O)CO)CC3)c(F)c2)C(=O)O1)C(Cl)Cl [Example 33, (S)-(−)-2,2-Dichloro-N-[[2-oxo-3-[3-fluoro-4-[1-(hydroxyacetyl)-4-piperidinyl]phenyl]-5-oxazolidinyl]methyl]acetamide] | 10.6 mg/kg |
| CC(=O)NC[C@H]1CN(c2ccc(C3CCN(C(=O)COC(C)=O)CC3)c(F)c2)C(=O)O1 [Example 34, (S)-(−)-N-[[2-Oxo-3-[3-fluoro-4-[1-[(acetoxy)acetyl]-4-piperidinyl]phenyl]-5-oxazolidinyl]methyl]acetamide] | 6.3 mg/kg |
| CC(=O)NC[C@H]1CN(c2cc(F)c(C3CCN(C(=O)CO)CC3)c(F)c2)C(=O)O1 [Example 37, (S)-(−)-N-[[3-[4-[1-(Hydroxyacetyl)-4-piperidinyl]-3,5-difluorophenyl]-2-oxo-5-oxazolidinyl]methyl]acetamide] | 8.7 mg/kg |
| CC(=O)NC[C@H]1CN(c2ccc(C3=CCN(C(=O)COC(C)=O)CC3)c(F)c2)C(=O)O1 [Example 39, (S)-(−)-N-[[2-Oxo-3-[3-fluoro-4-[-1-[(acetoxy)acetyl]-3,6-dihydro-2H-pyridin-4-yl]phenyl]-5-oxazolidinyl]methyl]acetamide] | 3 mg/kg |
| CC(=O)NC[C@H]1CN(c2ccc(C3CCN(C(=O)CO)C3)c(F)c2)C(=O)O1 (stereo partly drawn) [Example 44, (5S)-N-[[3-[3-Fluoro-4-[1-(hydroxyacetyl)-3-pyrrolidinyl]phenyl]-2-oxo-5-oxazolidinyl]methyl]acetamide] | 5 mg/kg |

Same assay, conditions: Table 2; female mice; treatment 1 h and 5 h after infection, oral intubation or subcutaneous; survival over six days; probit analysis of mortality ratios

| Structure (SMILES) | ED50 |
| --- | --- |
| COC(=O)N1CCC(c2ccc(N3C[C@H](CNC(C)=O)OC3=O)cc2F)C1 (stereo partly drawn) [Example 46, (5S)-3-[4-[5-[(Acetylamino)methyl]-2-oxo-3-oxazolidinyl]-2-fluoropheny]-1-pyrrolidinecarboxylic acid methyl ester] | 7.90 mg/kg |
| CC(=O)NC[C@H]1CN(c2ccc(C3CCOCC3)c(F)c2)C(=O)O1 [Example 48, (S)-(−)-N-[[3-[4-[Tetrahydro-2H-pyran-4-yl]-3-fluoropheny]-2-oxo-5-oxazolidinyl]methyl]acetamide] | 17.50 mg/kg |
| CC(=O)NC[C@H]1CN(c2ccc(C3=CCSCC3)c(F)c2)C(=O)O1 [Example 49, (S)-(−)-N-[[3-[4-(3,6-Dihydro-2H-thiopyran-4-yl)-3-fluoropheny]-2-oxo-5-oxazolidinyl]methyl]acetamide] | 2.40 mg/kg |
| CC(=O)NC[C@H]1CN(c2ccc(C3=CCS(=O)(=O)CC3)c(F)c2)C(=O)O1 [Example 50, (S)-(−)-N-[[3-[4-(3,6-Dihydro-2H-thiopyran-4-yl)-3-fluoropheny]-2-oxo-5-oxazolidinyl]methyl]acetamide S,S-dioxide] | 2.20 mg/kg |
| CC(=O)NC[C@H]1CN(c2ccc(C3CCS(=O)(=O)CC3)c(F)c2)C(=O)O1 [Example 51, (S)-(−)-N-[[3-[3-Fluoro-4-(tetrahydro-2H-thiopyran-4-yl)phenyl]-2-oxo-5-oxazolidinyl]methyl]acetamide S,S-dioxide] | 2.80 mg/kg |

Same assay, conditions: Table 2; female mice; treatment 1 h and 5 h after infection, oral intubation or subcutaneous; survival over six days; probit analysis of mortality ratios; read-out: ED50

| Structure (SMILES) | ED50 |
| --- | --- |
| CC(=O)NC[C@H]1CN(c2ccc(C3=CC[S+]([O-])C3)c(F)c2)C(=O)O1 (stereo partly drawn) [68(a), (5S)-N-[[3-[3-Fluoro-4-(2,5-dihydro-1-oxido-3-thienyl)-phenyl]-2-oxo-5-oxazolidinyl]methyl]acetamide] | 3.5 mg/kg |
| CC(=O)NC[C@H]1CN(c2ccc(C3=CCS(=O)(=O)C3)c(F)c2)C(=O)O1 [69(a), (S)-N-[[3-[3-Fluoro-4-(2,5-dihydro-1,1-dioxido-3-thienyl)-phenyl]-2-oxo-5-oxazolidinyl]methyl]acetamide] | 10 mg/kg |
| CC(=O)NC[C@H]1CN(c2ccc(C3=CCOCC3)cc2)C(=O)O1 [Example 52, (S)-(−)-N-[[3-[4-(3,6-Dihydro-2H-pyran-4-yl)phenyl]-2-oxo-5-oxazolidinyl]methyl]acetamide] | 4 mg/kg |
| CC(=O)NC[C@H]1CN(c2ccc(C3CCOCC3)cc2)C(=O)O1 [Example 53, (S)-(−)-N-[[3-[4-[Tetrahydro-2H-pyran-4-yl]phenyl]-2-oxo-5-oxazolidinyl]methyl]acetamide] | > 20 mg/kg |
| CC(=O)NC[C@H]1CN(c2ccc(C3=CCSCC3)cc2)C(=O)O1 [Example 54, (S)-(−)-N-[[3-[4-(3,6-Dihydro-2H-thiopyran-4-yl)phenyl]-2-oxo-5-oxazolidinyl]methyl]acetamide] | 6.6 mg/kg |
